Assay results published in ChEMBL document CHEMBL2331299, “Basic N-interlinked imipramines show apoptotic activity against malignant cells including Burkitt's lymphoma” (Bioorg Med Chem Lett, 2013).
Calls of active or inactive are those of the source. The rule behind the calls is not given here.

Tests used:
DG-75 [1] = test: Reduction in cell viability of human DG75 cells after 24 hrs by Alamar blue viability assay; type: functional, cell-based; settings: DG-75, 24 h
MUTU-I [2] = test: Induction of apoptosis in human MUTU-I cells assessed as decrease in cells at G2/M phase measured at 2.5 uM after 24 hrs by propidium iodide assay; type: functional, cell-based
DG-75 [3] = test: Induction of apoptosis in human DG75 cells assessed as decrease in cells at G2/M phase measured at 2.5 uM after 24 hrs by propidium iodide assay; type: functional, cell-based
HeLa [4] = test: Induction of apoptosis in human HeLa cells assessed as decrease in cells at G2/M phase measured at 2.5 uM after 24 hrs by propidium iodide assay; type: functional, cell-based
[5] = Reduction in cell viability of human MUTU-I cells after 24 hrs by Alamar blue viability assay; type: functional, cell-based
HeLa [6] = test: Reduction in cell viability of human HeLa cells after 24 hrs by Alamar blue viability assay; type: functional, cell-based
[7] = molecular target: Sodium-dependent serotonin transporter (Homo sapiens, UniProt P31645); test: Inhibition of human SERT expressed in HEK293-MSR cells by 5-HT uptake assay; type: cell-based
MUTU-I [8] = test: Induction of apoptosis in human MUTU-I cells assessed as increase in caspase 3/7 activation by luminescence plate reader; type: functional, cell-based
HeLa [9] = test: Induction of apoptosis in human HeLa cells assessed as cell death at 2.5 uM after 8 hrs by flow cytometry; type: functional, cell-based
DG-75 [10] = test: Induction of apoptosis in human DG75 cells assessed as increase in caspase 3/7 activation by luminescence plate reader; type: functional, cell-based
MUTU-I [11] = test: Induction of apoptosis in human MUTU-I cells assessed as cell death at 2.5 uM in presence of NAC ROS inhibitor; type: functional, cell-based
HeLa [12] = test: Induction of apoptosis in human HeLa cells assessed as increase in intracellular cysteine proteases; type: functional, cell-based
DG-75 [13] = test: Induction of apoptosis in human DG75 cells assessed as cell death at 2.5 uM after 24 hrs by flow cytometry (reference value: 0.8 +/- 0.25%); type: functional
MUTU-I [14] = test: Induction of apoptosis in human MUTU-I cells assessed as increase in intracellular cysteine proteases; type: functional, cell-based
MUTU-I [15] = test: Induction of apoptosis in human MUTU-I cells assessed as PARP cleavage by Western blotting analysis; type: functional, cell-based
MUTU-I [16] = test: Induction of apoptosis in human MUTU-I cells assessed as cell death at 2.5 uM after 2 hrs by flow cytometry; type: functional, cell-based
DG-75 [17] = test: Induction of apoptosis in human DG75 cells assessed as cell death at 2.5 uM measured after 24 hrs by flow cytometry; type: functional, cell-based
HeLa [18] = test: Induction of apoptosis in human HeLa cells assessed as PARP cleavage by Western blotting analysis; type: functional, cell-based
HeLa [19] = test: Induction of apoptosis in human HeLa cells assessed as cell death at 2.5 uM after 24 hrs by flow cytometry (reference value: 7 +/- 1.9%); type: functional
HeLa [20] = test: Induction of apoptosis in human HeLa cells assessed as increase in caspase 3/7 activation by luminescence plate reader; type: functional, cell-based
HeLa [21] = test: Induction of apoptosis in human HeLa cells assessed as cell death at 2.5 uM in presence of NAC ROS inhibitor; type: functional, cell-based
[22] = (§1) Induction of apoptosis in human MUTU-I cells assessed as cell death at 2.5 uM after 24 hrs by flow cytometry (reference value: 3.7 +/- 0.4%); type: functional
DG-75 [23] = test: Induction of apoptosis in human DG75 cells assessed as PARP cleavage by Western blotting analysis; type: functional, cell-based
DG-75 [24] = test: Induction of apoptosis in human DG75 cells assessed as cell death at 2.5 uM in presence of NAC ROS inhibitor; type: functional, cell-based
DG-75 [25] = test: Induction of apoptosis in human DG75 cells assessed as increase in cells at G2/M phase measured at 2.5 uM after 24 hrs by propidium iodide assay; type: functional, cell-based
MUTU-I [26] = test: as §1; type: functional

Chain of Sodium-dependent serotonin transporter (P31645 whole entry): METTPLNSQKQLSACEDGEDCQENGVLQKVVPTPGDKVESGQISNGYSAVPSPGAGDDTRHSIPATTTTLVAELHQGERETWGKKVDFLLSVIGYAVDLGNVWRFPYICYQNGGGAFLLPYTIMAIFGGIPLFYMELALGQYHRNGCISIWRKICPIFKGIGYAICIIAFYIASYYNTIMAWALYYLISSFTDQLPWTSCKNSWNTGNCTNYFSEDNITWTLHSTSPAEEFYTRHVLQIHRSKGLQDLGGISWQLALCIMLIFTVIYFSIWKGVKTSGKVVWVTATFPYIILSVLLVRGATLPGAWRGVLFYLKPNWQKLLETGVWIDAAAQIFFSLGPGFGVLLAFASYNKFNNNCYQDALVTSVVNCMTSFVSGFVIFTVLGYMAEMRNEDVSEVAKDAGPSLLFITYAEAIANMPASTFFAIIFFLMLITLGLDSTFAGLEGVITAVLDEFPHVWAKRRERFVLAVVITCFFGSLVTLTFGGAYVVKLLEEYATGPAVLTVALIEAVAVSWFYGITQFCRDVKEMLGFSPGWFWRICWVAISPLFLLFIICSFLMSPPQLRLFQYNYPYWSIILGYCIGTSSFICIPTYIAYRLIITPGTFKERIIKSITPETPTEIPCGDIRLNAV

Structure (SMILES) | IC50 (DG-75 [1]) | Activity (MUTU-I [2]) | Activity (DG-75 [3]) | Activity (HeLa [4]) | IC50 [5] | IC50 (HeLa [6]) | IC50 [7] | Activity (MUTU-I [8]) | Activity (HeLa [9]) | Activity (DG-75 [10]) | Activity (MUTU-I [11]) | Activity (HeLa [12]) | Activity (DG-75 [13]) | Activity (MUTU-I [14]) | Activity (MUTU-I [15]) | Activity (MUTU-I [16]) | Activity (DG-75 [17]) | Activity (HeLa [18]) | Activity (HeLa [19]) | Activity (HeLa [20]) | also measured
CN(C)CCCN1c2ccccc2CCc2ccccc21 [IMIPRAMINE] | > 50 µM | inactive | inactive | inactive | 14.1 µM | 40.7 µM | – | – | – | – | – | – | – | – | – | – | – | – | – | – | –
CN(CCCN1c2ccccc2CCc2ccccc21)C(=O)COCCOCC(=O)N(C)CCCN1c2ccccc2CCc2ccccc21 | 18.6 µM | inactive | inactive | inactive | 5.75 µM | 22.9 µM | 46 µM | – | – | – | – | – | – | – | – | – | – | – | – | – | –
CN(CCCN1c2ccccc2CCc2ccccc21)CCOCCN(C)CCCN1c2ccccc2CCc2ccccc21 | 1.89 µM | Active | Active | Active | 1.05 µM | 1.74 µM | 6 µM | Active | Active | inactive | Active | Active | 22.8% | Active | Active | Active | Active | Active | 61.7% | Active | Activity (HeLa [21]): Active; Activity [22]: 66.6%; Activity (DG-75 [23]): inactive; Activity (DG-75 [24]): Active
CN(CCCN1c2ccccc2CCc2ccccc21)CCOCCOCCN(C)CCCN1c2ccccc2CCc2ccccc21 | 1.51 µM | Active | Active | Active | 0.62 µM | 1.41 µM | 4.8 µM | Active | Active | inactive | Active | Active | 40.9% | Active | Active | Active | Active | Active | 44.4% | Active | Activity (HeLa [21]): Active; Activity [22]: 56.2%; Activity (DG-75 [23]): inactive; Activity (DG-75 [24]): Active
CN(CCCN1c2ccccc2CCc2ccccc21)CCOCCOCCOCCN(C)CCCN1c2ccccc2CCc2ccccc21 | 1.91 µM | Active | Active | Active | 1.15 µM | 1.58 µM | 5.5 µM | Active | Active | inactive | Active | Active | 54.6% | Active | Active | Active | Active | Active | 46% | Active | Activity (HeLa [21]): Active; Activity [22]: 46.3%; Activity (DG-75 [23]): inactive; Activity (DG-75 [24]): Active
CNCCCN1c2ccccc2CCc2ccccc21 [DESIPRAMINE] | 39.8 µM | inactive | inactive | inactive | 7.94 µM | 17.8 µM | – | – | – | – | – | – | – | – | – | – | – | – | – | – | –
CC(=O)O[C@H]1C(=O)[C@@]2(C)[C@H]([C@H](OC(=O)c3ccccc3)[C@]3(O)C[C@H](OC(=O)[C@H](O)[C@@H](NC(=O)c4ccccc4)c4ccccc4)C(C)=C1C3(C)C)[C@]1(OC(C)=O)CO[C@@H]1C[C@@H]2O | – | – | – | – | – | – | – | – | – | – | – | – | inactive | – | – | – | – | – | Active | – | Activity (DG-75 [25]): Active; Activity (MUTU-I [26]): Active
